Test results as given in US10632127B2, “Targeted notch pathway inhibitors” (Hoffmann-La Roche Inc., priority 2015, dated 2020).
Like-named read-outs stand apart in the source and are kept apart here.

Tests used:
[1] = Pharmacokinetic assessment in male Wistar rats (i.v.); format: in vivo, rat
Procedure: For PK evaluation, the compounds were administered i.p to male C57BL/6 mice in suspension (gelatine/saline 7.5%/0.62% in water) using an administration volume of 4 mL/kg. Blood samples were collected in tubes containing EDTA, plasma was separated by centrifugation and stored at −80° C. Liver and kidney samples (˜100 mg aliquots) were homogenized in three volumes of water using Precellys tissue homogenization tubes (precellys.com). 25 μL of each tissue homogenate was further diluted with 25 μL blank plasma to produce the final tissue homogenate for extraction. All samples were analyzed using protein precipitation followed by LC-MS/MS analysis. Briefly, 50 μL plasma or final tissue homogenate were mixed with 50 μL 0.5M HClO4/acetonitrile 9/1 (containing 200 ng/mL internal standard bosentan). Samples were stirred and 300 μL water was added followed by centrifugation at 5600 rpm (4° C., 10 min). 10 μL supernatant was analyzed by LC/MS analysis. Calibration standards in plasma were prepared the same way. The LC column and conditions used were: Phenomenex, Polar RP, 4 μm, 50×2.1 mm at 0.4 mL/min flow rate with a 3 min gradient from 95% solvent A to 95% solvent B (Solvent A: Water/ACN/HCOOH, 90:10:0.1+10 mM NH4 formate; Solvent B: Water/ACN/HCOOH, 10:90:0.1+10 mM NH4 formate). Mass spectrometric conditions were: Thermo TSQ Vantage with positive heated electrospray ionization in MS/MS mode. Compounds mass transitions monitored were m/z 320.7 to 119.9. PK parameters for all studies were calculated using Phoenix WinNonlin Software.
We next determined the stability, tissue distribution and cleavage rate in plasma, liver and kidney of the designed prodrugs in male Wistar rats. In the in vivo screen, the kinetics and distribution of the prodrugs Ac-γ-Glu-SecrI (13a) and Ac-γ-Glu-O-SecrI (13c) were compared with the active γ-secretase inhibitor SecrI (8). After i.v. administration in male Wistar rats, the disappearance of the prodrugs and the formation of the active amine-SecrI (11a), amine-O-SecrI (11b) and SecrI (8) were compared in plasma, liver and kidney (Table 7A-C). First, we determined the pharmacokinetics (PK) behavior of SecrI (8) following i.v. administration (Table 7A). […] Liver and kidney exposure were much higher, with same exposure in liver and kidney. […] The selectivity towards kidney stayed constant over time. The carbonate analogue Ac-γ-Glu-O-SecrI (13c) prodrug was converted to a lower extent than the Ac-γ-Glu-SecrI (13a) to amine-O-SecrI (11b) but more to the linker free γ-secretase inhibitor 8 (Table 7C).
Plasma and tissue concentrations of administered compound (A-C) and formed amine-SecrI (11a), amine-O-SecrI (11b) or SecrI (8) (B-C) were determined following i.v. administration in rats (no standard deviation given due to sparse sampling; n≤3 rats per time point). Numbers in parentheses represent relative amounts with the exposure of kidney arbitrarily set at each time point to 100%. […] BQL=below quantifiable limit.

[2] = tested on: Notch1 and cleaved Notch1; test: Immunohistochemistry of Notch1 and cleaved Notch1 in kidneys of mice exposed to aristolochic acid; format: in vivo, mouse; details: for Notch1 and cleaved Notch1 in kidneys (immunohistochemistry): AA-exposed mice, 11a 10 mg/kg b.i.d. or 13a 30 mg/kg b.i.d. i.p., day 7, versus AA-treated mice without prodrug; for modification of Notch or cleaved Notch levels in the kidneys: healthy wild-type mice, compound injected alone (results not shown)
Procedure: FIG. 3. Expression of Notch1 and active cleaved Notch1 determined by immuno-histochemistry in kidneys of mice exposed to aristolochic acid (AA) and treated either with the amine-SecrI (11a) or with Ac-γ-Glu-SecrI (13a).
Sections (7 μm) of snap-frozen kidneys were exposed to an anti-γ-secretase-cleaved Notch (cNotch) antibody, followed by the […] staining. Immunostaining is visualized as dark precipitate.
All experiments with animals were conducted in accordance with federal and local regulation at the respective study location. Kidney injury was induced by intraperitoneal (i.p). injection of aristolochic acid (AA, Sigma-Aldrich, 1×5 mg/kg) in 10 weeks old BALB/c male mice. The γ-secretase inhibitors prodrugs were diluted in NaCl 0.9% and administered i.p., starting one day before the injection of AA (day −1) and then twice daily until day 6 evening (n=5 mice/experimental group). At day 7 morning (12 h after the last prodrug injection), blood was collected and the mice were sacrificed to remove the liver and both kidneys. The kidneys were cut in four fragments. One fragment was immediately frozen in liquid nitrogen, one fragment was included in OCT (Tissue-Tek, VWR International, Switzerland) and frozen, one fragment was frozen at −80° C. and one fragment was fixed in 4% paraformaldehyde and included in paraffin.
OCT-embedded frozen kidneys were cut at 7 μm. The sections were air dried, fixed for 10 min in cold (−20° C.). methanol, rinsed in PBS 0.1% Triton x-100 (PBS/Triton), and blocked for 30 min with PBS/Triton containing 5% bovine serum albumin (BSA). The rabbit anti-Notch1 antibody (D1E11, diluted 1/50) and the rabbit anti-cleaved Notch1 antibody (Val1744, diluted 1/50) were purchased from Cell Signaling, the biotinylated anti-rabbit antibody from Vector Laboratories (diluted 1/500) and streptavidin/HRP (diluted 1/500) from Dako. The primary antibodies were diluted in PBS containing 5% BSA and were incubated with the sections for 1 h at RT. Endogenous peroxidase and biotin were blocked using 3% H2O2 and Avidin/Biotin blocking kit (Vector Laboratories), respectively. The slides were rinsed with PBS/Triton three times and incubated for 1 h at RT with anti-rabbit biotin secondary antibody diluted in the same buffer as for primary antibodies. After three washes with PBS, slides were incubated with streptavidin/HRP antibody for 1 h at RT, then 3,3′diaminobenzidine (DAB, Dako) was added for 15 min. The slides were washed in distilled water, mounted in Aquamount and analyzed.
To investigate potential nephroprotective effects of Notch blockade using γ-secretase inhibition and to evaluate the effects of our enzyme-targeted prodrug strategy, we used the in vivo AA mouse model of acute renal tubular damage. […]

## C[C@H]1Oc2ccc(F)cc2N(CCO)C(=O)[C@H]1NC(=O)[C@@](C)(O)C(=O)NCC(F)(F)C(F)(F)F [Compound 8, N-[(6R,7S)-2-Fluoro-9-(2-hydroxy-ethyl)-6-methyl-8-oxo-6,7,8,9-tetrahydro-5-oxa-9-aza-benzocyclohepten-7-yl]-2-(S)-hydroxy-2-methyl-N′-(2,2,3,3,3-pentafluoro-propyl)-malonamide]
[1]; 8 3.5 mg/kg i.v., 0.25 h
  8 in kidney, relative amount (arbitrarily set to 100%): (100) %
  8 in liver, relative amount (kidney = 100%): (93) %
[1]; 8 3.5 mg/kg i.v., 1.25 h
  8 in kidney, relative amount (arbitrarily set to 100%): (100) %
  8 in liver, relative amount (kidney = 100%): (101) %
[1]; 8 3.5 mg/kg i.v., 2.2 h
  8 in kidney, relative amount (arbitrarily set to 100%): (100) %
  8 in liver, relative amount (kidney = 100%): (133) %
[1]; 8 3.5 mg/kg i.v., 7 h
  8 in kidney, relative amount (arbitrarily set to 100%): (100) %
  8 in liver, relative amount (kidney = 100%): (126) %
[1]; 13c 1.5 mg/kg i.v., 4 h
  Plasma concentration of formed 8: BQL
[1]; 13c 1.5 mg/kg i.v., 7 h
  Formed 8 in kidney, relative amount (arbitrarily set to 100%): (100) %
  Formed 8 in liver, relative amount (kidney = 100%): (43) %
  Plasma concentration of formed 8: BQL
[1]; formed after 13c i.v.
  kidney selectivity, in words: only a moderate kidney selectivity
[1]; i.v.
  plasma clearance, in words: rapid plasma clearance
  plasma exposure, in words: good plasma exposure
[1]; rat, kidney, iv, 8 3.5 mg/kg i.v., 0.25 h, read-out: Kidney concentration of 8
  concentration at 0.25 h: 3320 ng/g
[1]; rat, kidney, iv, 8 3.5 mg/kg i.v., 1.25 h, read-out: Kidney concentration of 8
  concentration at 1.25 h: 844 ng/g
[1]; rat, kidney, iv, 8 3.5 mg/kg i.v., 2.2 h, read-out: Kidney concentration of 8
  concentration at 2.2 h: 225 ng/g
[1]; rat, kidney, iv, 8 3.5 mg/kg i.v., 7 h, read-out: Kidney concentration of 8
  concentration at 7 h: 92.4 ng/g
[1]; rat, liver, iv, 8 3.5 mg/kg i.v., 0.25 h, read-out: Liver concentration of 8
  concentration at 0.25 h: 3100 ng/g
[1]; rat, liver, iv, 8 3.5 mg/kg i.v., 1.25 h, read-out: Liver concentration of 8
  concentration at 1.25 h: 852 ng/g
[1]; rat, liver, iv, 8 3.5 mg/kg i.v., 2.2 h, read-out: Liver concentration of 8
  concentration at 2.2 h: 298 ng/g
[1]; rat, liver, iv, 8 3.5 mg/kg i.v., 7 h, read-out: Liver concentration of 8
  concentration at 7 h: 116 ng/g
[1]; rat, plasma, iv, 8 3.5 mg/kg i.v., 0.25 h, read-out: Plasma concentration of 8
  concentration at 0.25 h: 964 ng/mL
[1]; rat, plasma, iv, 8 3.5 mg/kg i.v., 1.25 h, read-out: Plasma concentration of 8
  concentration at 1.25 h: 198 ng/mL
[1]; rat, plasma, iv, 8 3.5 mg/kg i.v., 2.2 h, read-out: Plasma concentration of 8
  concentration at 2.2 h: 39.7 ng/mL
[1]; rat, plasma, iv, 8 3.5 mg/kg i.v., 7 h, read-out: Plasma concentration of 8
  concentration at 7 h: 18.4 ng/mL

## C[C@H]1Oc2ccc(F)cc2N(CCOC(=O)NCCN)C(=O)[C@H]1NC(=O)[C@@](C)(O)C(=O)NCC(F)(F)C(F)(F)F.Cl [Compound 11a, 2-((2R,3S)-7-Fluoro-3-((S)-2-hydroxy-2-methyl-3-oxo-3-(2,2,3,3,3-pentafluoropropylamino)propanamido)-2-methyl-4-oxo-3,4-dihydrobenzo[b][1,4]oxazepin-5(2H)-yl)ethyl 2-aminoethylcarbamate hydrochloride]
[1]; 13a 1.6 mg/kg i.v., 0.25 h
  Plasma concentration of formed 11a: BQL
[1]; 13a 1.6 mg/kg i.v., 0.5 h
  Plasma concentration of formed 11a: BQL
[1]; 13a 1.6 mg/kg i.v., 4 h
  Plasma concentration of formed 11a: BQL
[1]; 13a 1.6 mg/kg i.v., 7 h
  Liver concentration of formed 11a: BQL
  Plasma concentration of formed 11a: BQL
[2]
  Notch1 and cleaved Notch1 in kidneys (immunohistochemistry): reduced
  modification of Notch or cleaved Notch levels in the kidneys: Neither (11a) nor (13a) injected alone induced any modification

## CC(=O)N[C@@H](CCC(=O)NCCNC(=O)OCCN1C(=O)[C@@H](NC(=O)[C@@](C)(O)C(=O)NCC(F)(F)C(F)(F)F)[C@@H](C)Oc2ccc(F)cc21)C(=O)O [Compound 13a, (S)-2-acetamido-5-(2-((2-((2R,3S)-7-fluoro-3-((S)-2-hydroxy-2-methyl-3-oxo-3-(2,2,3,3,3-pentafluoropropylamino)propanamido)-2-methyl-4-oxo-3,4-dihydrobenzo[b][1,4]oxazepin-5(2H)-yl)ethoxy)carbonylamino)ethylamino)-5-oxopentanoic acid]
[1]; 13a 1.6 mg/kg i.v., 4 h
  Liver concentration of 13a: BQL
  Plasma concentration of 13a: BQL
[1]; 13a 1.6 mg/kg i.v., 7 h
  Kidney concentration of 13a: BQL
  Liver concentration of 13a: BQL
  Plasma concentration of 13a: BQL
[1]; 13a i.v., 0.25 h
  conversion to amine-SecrI (11a), in words: high conversion
[1]; i.v.
  conversion to the linker-free γ-secretase inhibitor 8, in words: never observed significant amounts
  plasma exposure, in words: low plasma exposure
  stability in plasma, in words: good stability in plasma
[1]; rat, kidney, iv, 13a 1.6 mg/kg i.v., 0.25 h, read-out: Kidney concentration of 13a
  concentration at 0.25 h: 188 ng/g
[1]; rat, kidney, iv, 13a 1.6 mg/kg i.v., 0.5 h, read-out: Kidney concentration of 13a
  concentration at 0.5 h: 12.7 ng/g
[1]; rat, kidney, iv, 13a 1.6 mg/kg i.v., 4 h
  concentration at 4 h: 16.6 ng/g
[1]; rat, liver, iv, 13a 1.6 mg/kg i.v., 0.25 h, read-out: Liver concentration of 13a
  concentration at 0.25 h: 400 ng/g
[1]; rat, liver, iv, 13a 1.6 mg/kg i.v., 0.5 h, read-out: Liver concentration of 13a
  concentration at 0.5 h: 33.4 ng/g
[1]; rat, plasma, iv, 13a 1.6 mg/kg i.v., 0.25 h, read-out: Plasma concentration of 13a
  concentration at 0.25 h: 295 ng/mL
[1]; rat, plasma, iv, 13a 1.6 mg/kg i.v., 0.5 h, read-out: Plasma concentration of 13a
  concentration at 0.5 h: 11.2 ng/mL
[2]
  Notch1 and cleaved Notch1 in kidneys (immunohistochemistry): reduced
  modification of Notch or cleaved Notch levels in the kidneys: Neither (11a) nor (13a) injected alone induced any modification
